Assay [1] is described as follows: relative insecticidal efficacy (general statement). The format is in vivo. To be noted: Starting Material vs previously described mixture of cis and trans isomers; Racemate vs Starting Material.
The subject of assay [2] is Heliothis virescens (tobacco budworm). Description: LC50 against larval tobacco budworm. The format is in vivo. To be noted: for LC50: read-out: LC50 (concentration required to kill 50% of a population). From the text:
The isomers were obtained by the h.p.l.c. technique shown in the next Example.

In brackets after ≈: the same amount, converted by molar mass. Like-named read-outs stand apart in the source and are kept apart here.

With `CC1(C)[C@H](C(=O)OC(C#N)c2ccc(F)c(Oc3ccccc3)c2)[C@@H]1C=C(Cl)Cl` (mixture of isomers) [The Starting Material, (RS) -α-cyano-4-fluoro-3-phenoxybenzyl (1RS,cis)-3-(2,2-dichlorovinyl)-2,2-dimethylcyclopropane carboxylate], the relative insecticidal efficacy entry in assay [1] is “potent insecticide of greater relative efficacy than the previously described mixture of cis and trans isomers”. Consider `CC1(C)C(C=C(Cl)Cl)C1C(=O)OC(C#N)c1ccc(F)c(Oc2ccccc2)c1` (racemic) [Cyfluthrin, (R,S)-α-cyano-4-fluoro-3-phenoxybenzyl (1R,S-cis)/(1R,S-trans)-3-(2,2-dichlorovinyl)-2,2-dimethylcyclopropane carboxylate], for which the LC50 in assay [2] (larval Heliothis virescens) was 7.1 µg/mL (≈ 16.3 µM). As to `CC1(C)[C@H](C(=O)O[C@H](C#N)c2ccc(F)c(Oc3ccccc3)c2)[C@@H]1C=C(Cl)Cl` (relative stereo) [1R,cis-S/1S,cis-R, (S)-α-cyano-4-fluoro-3-phenoxybenzyl (1R,cis)-3-(2,2-dichlorovinyl)-2,2-dimethylcyclopropanecarboxylate and its enantiomer, (R)-α-cyano-4-fluoro-3-phenoxybenzyl (1S,cis)-3-(2,2-dichlorovinyl)-2,2-dimethylcyclopropane carboxylate], in assay [2] (larval Heliothis virescens, from LC50 values), the “efficacy relative to cyfluthrin” value was “about four times more efficacious than cyfluthrin”. Besides, the LC50 in assay [2] (larval Heliothis virescens) came out at 1.8 µg/mL (≈ 4.14 µM). Moreover, the relative insecticidal efficacy result in assay [1] is “even more effective insecticidal product”. As to `CC1(C)[C@H](C=C(Cl)Cl)[C@H]1C(=O)O[C@H](C#N)c1ccc(F)c(Oc2ccccc2)c1` (relative stereo) [1R,trans-S/1S,trans-R], the LC50 in assay [2] (larval Heliothis virescens) was found to be 3.6 µg/mL (≈ 8.29 µM). Consider `CC1(C)[C@H](C(=O)O[C@@H](C#N)c2ccc(F)c(Oc3ccccc3)c2)[C@@H]1C=C(Cl)Cl` (relative stereo) [1S,cis-S/1R,cis-R, (R)-α-cyano-4-fluoro-3-phenoxybenzyl (1R,cis)-3-(2,2-dichlorovinyl)-2,2-dimethylcyclopropane carboxylate and (S)-α-cyano-4-fluoro-3-phenoxybenzyl (1S,cis)-3-(2,2-dichlorovinyl)-2,2-dimethylcyclopropane carboxylate], for which the LC50 in assay [2] (Heliothis virescens) stood at 23.4 µg/mL (≈ 53.9 µM).

Source of the values: patent publication US4681969A, “Process for the preparation of an enantiomeric pair of isomers of cyfluthrin” (Imperial Chemical Industries PLC, priority 1984, dated 1987).
